The source of these data is patent US20230391752A1, “PYRROLIDINE-3-CARBOXAMIDE DERIVATIVES AND RELATED USES” (Chulalongkorn University, priority 2020, published 2023).

The target in series [1] is T1, HBV core protein (Cp149) (Hepatitis B virus genotype D subtype ayw, UniProt P03146).
T1 construct: HBV core C-terminally truncated protein (HBV Cp149); made in house
Put plainly: HBV capsid assembly by size exclusion chromatography (SEC). The format is biochemical. The following applies: 50 μM compound, 15 μM Cp149, 16 hours at 21° C.

Series [2] addresses T1, HBV core protein (Cp149). As to the kind of experiment: HBV capsid assembly by electron microscopy (EM). The series is classed as biochemical. To be noted: 50 μM compound, 15 μM Cp149, negative stain.
The subject of another series is HBV genotype D. As to the kind of experiment: HBV-infected primary human hepatocytes (PHH). The format is cell-based, Hepatitis B virus. The following applies: treatment scheme 1, southern blot. On the procedure: Primary human hepatocytes (PHH) were infected with HBV genotype D produced from HepG2.2.15 cell line on day 1 after plating. Subsequently, the PHH were treated with various concentrations of compounds into 2 different treatment schemes. For treatment scheme 1, the compounds were added into PHH simultaneously with infection media, and incubated for additional 6 days. For treatment scheme 2, the compounds were added into PHH at day 3 after infection, and further incubated for 6 days. After treatment, the cell culture supernatants were collected for the determinations of HBV DNA by qPCR, pgRNA by RT-PCR, HBsAg and HBeAg by ELISA, and cell viability by CCK-8. The cells were harvested for detection of intracellular cccDNA by southern blot.

The target in a further series is T2, HBV capsid (Hepatitis B virus genotype D subtype ayw, UniProt P03146).
T2 construct: expressed in transfected cells; host or cells: HepG2.2.15
T2 sequence (P03146 whole entry): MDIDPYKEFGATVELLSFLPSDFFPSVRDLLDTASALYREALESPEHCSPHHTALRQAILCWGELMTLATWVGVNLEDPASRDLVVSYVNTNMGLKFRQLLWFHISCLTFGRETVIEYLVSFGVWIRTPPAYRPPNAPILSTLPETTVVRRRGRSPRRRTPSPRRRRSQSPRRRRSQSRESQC
Put plainly: Mechanistic study in stably HBV expressed HepG2.2.15 cells (capsid, encapsidated DNA/RNA, core protein blots). The series is classed as cell-based. The following applies: HepG2.2.15, 6 days; for HBV capsid (formation of DNA- and RNA-devoid capsid): various concentrations; for Intracellular HBV core protein level: western blot. The method, then: The stably HBV expressed HepG2.2.15 cells were treated with test compounds, at various concentrations in culture medium, at 37° C. for three days. After that the medium was removed and fresh medium containing the compound was added to the cells for another 3 days. After 6 days of treatment, cellular lysates from the treated cells were assessed by non-denatured agarose gel electrophoresis. HBV capsid was detected by western blot with monoclonal anti-HBV core. Encapsidated HBV DNA and RNA were detected by southern blot and northern blot. Intracellular HBV core protein was assessed by western Blot with a monoclonal mouse anti-HBV core. β-actin protein assessed by western blot was used as an internal control.
In general terms: In western blotting, separated proteins are transferred to a membrane and probed.

A short description of series [3]: Cytotoxicity (MTT) in HepG2.2.15 cells. The series is classed as cell-based. To be noted: human, 6 days treatment, read-out: HepG2.1.15 cytotoxicity (CC50). On the procedure:
HepG2.2.15 cells were seeded onto 96-well culture plate and allowed to adhere for 24 hours. The cells were treated with various concentrations of the compounds for 6 days. After treatment, the culture media were discarded and further incubated with serum-free media containing […] of 3-(4,5-dimethylthiazol-2-yl)-2,5-diphenyl tetrazolium bromide (MTT) for 2 hour. The resulting formazan crystals were completely dissolved in dimethyl sulfoxide (DMSO), and then measured absorbance at 570 nm using microplate reader. The concentrations of compounds producing 50% cell death (CC50) were determined from a fitting of concentration-response curve (% cell viability versus concentration) to a four-parameter equation.

Series [4] has as its system HBV. As to the kind of experiment: Effect on intrahepatic HBV DNA levels in HepG2.2.15 cells (EC50). The format is cell-based. The following applies: Hepatitis B virus, 144 h, 6 days, intrahepatic HBV DNA by qPCR, read-out: Anti-HBV DNA (EC50). The method, then: HepG2.2.15 cells were treated with compounds, at various concentrations in 10% FCS containing medium, at 37° C. for three days. After that the medium was removed and fresh medium containing the compound was added to the cells for another 3 days. After 6 days of treatment, intrahepatic HBV DNA from cell lysates were isolated. Then qPCR reaction of DNA was performed to measure total HBV DNA levels using specific primer set. The fifty-percent effective concentrations (EC50) for HBV DNA inhibition, relative to no drug controls, was determined using nonlinear fitting curve model. EC50 ranges for HBV DNA inhibition were as follows: A>0.3 μM, B=0.05-0.3 μM, C<0.05 μM (Table B).
(In general: In qPCR the cycle at which signal appears reflects the starting amount.)

Series [5] deals with HBV. Put plainly: In vitro anti-HBV activity in HepG2.2.15 cell line (intracellular HBV DNA by qPCR at 1 μM). The following applies: Hepatitis B virus, 144 h; HepG2.2.15 cells, 1 μM compound, 6 days, intracellular HBV DNA as percentage compared to vehicle control (0.5% DMSO). The format is cell-based. In outline: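 Intracellular HBV DNA was quantified by qPCR and given as percent of vehicle (0.5% DMSO), grouped into letter ranges. Stably transfected HepG2.2.15 cells had 6 days of exposure to 1 μM compound, with medium and compound renewed after day 3.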

The nature of series [6]: Pharmacokinetic study in rats. The series is classed as in vivo, male Sprague-Dawley rats. To be noted: for F (%) Rat: PO 0.3 to 2.0 mg/kg; for clearance / Vd / half-life: male, Sprague-Dawley, plasma, rat; for clearance / Vd / CL (mL/min/kg) Rat: IV 0.2 to 0.5 mg/kg; for clearance: read-out: CL (mL/min/kg) Rat; for Vd: read-out: Vd,ss (L/kg) Rat; for half-life: read-out: t1/2 (h) Rat (converted). On the procedure:
(§1) Test compounds were administered to male Sprague-Dawley rats and male Beagle dogs by oral (PO) and intravenous (TV) administration. For TV dosing, test compounds were dosed at 0.2 to 0.5 mg/kg using a formulation of 10% dimethyl sulfoxide in 20% hydroxypropyl beta-cyclodextrin solution via IV bolus. For PO dosing, test compounds were dosed at 0.3 to 2.0 mg/kg using a formulation of 40% polyethylene glycol 400 in water via oral gavage. Blood samples were collected at pre-dose and various time points up to 24 hours post-dose, and centrifuged to obtain plasma samples. The plasma concentrations of test compounds were quantified by LC-MS/MS methods. The relevant pharmacokinetic parameters (Table D) were calculated via non-compartmental analysis using WinNonlin (Phoenix™, version 8.3).

Series [7] is described as follows: Pharmacokinetic study in dogs. The format is in vivo, male Beagle dogs. The following applies: for F (%) Dog: PO 0.3 to 2.0 mg/kg; for half-life / clearance / Vd: male, Beagle, dog, plasma; for half-life: read-out: t1/2 (h) Dog (converted); for clearance / Vd: IV 0.2 to 0.5 mg/kg; for clearance: read-out: CL (mL/min/kg) Dog; for Vd: read-out: Vd,ss (L/kg) Dog. On the procedure:
as §1

T1 sequence (P03146 1-149): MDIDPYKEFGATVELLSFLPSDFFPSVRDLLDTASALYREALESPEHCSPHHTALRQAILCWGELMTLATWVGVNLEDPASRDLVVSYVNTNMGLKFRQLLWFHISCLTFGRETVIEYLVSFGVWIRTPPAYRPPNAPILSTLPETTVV

With `COC(=O)C1=C(C)NC(c2ncc(F)cc2F)=N[C@H]1c1ccc(F)cc1Cl` [BAY 41-4109, reference compound], on HBV core protein (Cp149) [1], the “Formation of capsids (SEC)” value is “increased the formation of capsids” and the “Size of induced capsids based on SEC retention times” value (shortened to “Size of induced capsids based”) is “larger in size, as compared to NVR 3-778”. Besides, on HBV core protein (Cp149) [2], the “Capsid morphology by EM” value is “the capsids appeared larger and misassembled with an irregular shape”.
Regarding `C=C1[C@H](CO)[C@@H](O)C[C@@H]1n1cnc2c(=O)[nH]c(N)nc21` [Entecavir, entecavir, reference compound], the “cccDNA establishment in PHH” value in the series with HBV genotype D is given as “had no effect on cccDNA establishment”. Further, on HBV capsid, the “HBV capsid (formation of DNA- and RNA-devoid capsid)” value is given as “had no effects”; the “Intracellular HBV core protein level” value is recorded as “had no effects”.
In the case of `C[C@H]1[C@@H](C(=O)Nc2ccc(F)c(C#N)c2)CCN1C(=O)c1ccc(C2CC2)[nH]1` [Example 74, (2S,3S)—N-(3-cyano-4-fluorophenyl)-1-(5-cyclopropyl-1H-pyrrole-2-carbonyl)-2-methylpyrrolidine-3-carboxamide], the “Size of induced capsids based” value at HBV core protein (Cp149) [1] was “induced capsids similar in size to NVR 3-778”. In addition, the CC50 (usually the concentration at which the toxic effect on the cells reaches its halfway point) at 6 days in [3] is 10 to 25 µM. Besides, the EC50 (usually the concentration at which the effect is half-maximal) with HBV [4] lay within 0.05 to 0.3 µM. Moreover, in the series with HBV [5], the activity at 1 µM is below 45%. In series [6], the “F (%) Rat” value is around 100%, the clearance worked out at 3 mL/min/kg, the Vd was found to be 0.72 L/kg and the half-life was 3.4 h.
Consider `C[C@H]1[C@@H](C(=O)Nc2cc(F)c(F)c(F)c2)CCN1C(=O)c1ccc(-c2ccnnc2)[nH]1` [Example 83, (2S,3S)-2-methyl-1-(5-(pyridazin-4-yl)-1H-pyrrole-2-carbonyl)-N-(3,4,5-trifluorophenyl)pyrrolidine-3-carboxamide], for which, on HBV core protein (Cp149) [1], the “Size of induced capsids based” value is “induced capsids similar in size to NVR 3-778”. Also, the CC50 at 6 days in [3] is above 25 µM. In addition, the EC50 in the series with HBV [4] was below 0.05 µM. Also, in the series on HBV [5], the activity at 1 µM is below 45%. Besides, in series [6], the “F (%) Rat” value was found to be 82%, the clearance was 0.3 mL/min/kg, the Vd is 0.13 L/kg and the half-life was 5.5 h.
Turning to `Cc1ncnc(C)c1-c1ccc(C(=O)N2CC[C@H](C(=O)Nc3cc(F)c(F)c(F)c3)C2)[nH]1` [Example 85, (S)-1-(5-(4,6-dimethylpyrimidin-5-yl)-1H-pyrrole-2-carbonyl)-N-(3,4,5-trifluorophenyl) pyrrolidine-3-carboxamide], the “Size of induced capsids based” value at HBV core protein (Cp149) [1] is given as “induced capsids similar in size to NVR 3-778”. Further, in series [7], the “F (%) Dog” value was around 100%, the half-life is 6.2 h, the clearance came to 4.4 mL/min/kg and the Vd was found to be 1.64 L/kg. For the same compound, the CC50 at 6 days in series [3] lay within 10 to 25 µM. Besides, in the series on HBV [4], the EC50 is below 0.05 µM. Moreover, the activity at 1 µM in the series with HBV [5] was below 45%. For the same compound, in series [6], the “CL (mL/min/kg) Rat” value was 15.2 mL/min/kg, the Vd came to 2.88 L/kg and the half-life is 3.6 h.
For `Cc1ncnc(C)c1-c1ccc(C(=O)N2CC[C@H](C(=O)Nc3ccc(F)c(Cl)c3)C2)[nH]1` [Example 99, (S)—N-(3-chloro-4-fluorophenyl)-1-(5-(4,6-dimethylpyrimidin-5-yl)-1H-pyrrole-2-carbonyl) pyrrolidine-3-carboxamide], the “Size of induced capsids based” value at HBV core protein (Cp149) [1] is “induced capsids similar in size to NVR 3-778”. Also, in series [3], the CC50 at 6 days lay within 10 to 25 µM. Besides, the EC50 in the series with HBV [4] is below 0.05 µM. Further, the activity at 1 µM in the series on HBV [5] was below 45%. Also, in series [6], the “F (%) Rat” value is 36%, the clearance was 38.4 mL/min/kg, the Vd is 2.34 L/kg and the half-life was 1 h.
Consider `Cc1ncnc(C)c1-c1ccc(C(=O)N2CC[C@H](C(=O)Nc3ccc(F)c(Cl)c3)[C@@H]2C)[nH]1` [Example 104, (2S,3S)—N-(3-chloro-4-fluorophenyl)-1-(5-(4,6-dimethylpyrimidin-5-yl)-1H-pyrrole-2-carbonyl)-2-methylpyrrolidine-3-carboxamide], for which the “Size of induced capsids based” value on HBV core protein (Cp149) [1] is listed as “induced capsids similar in size to NVR 3-778”. In series [7], the “F (%) Dog” value was 53%, the half-life was 14.2 h, the clearance is 1.5 mL/min/kg and the Vd was 1.67 L/kg. In addition, in series [3], the CC50 at 6 days was in the range of 10 to 25 µM. Moreover, the EC50 in the series on HBV [4] is below 0.05 µM. Besides, on HBV capsid, the “HBV capsid (formation of DNA- and RNA-devoid capsid)” value was “dose-dependently accelerated formation of DNA- and RNA-devoid capsid”; the “Intracellular HBV core protein level” value is “had no effect on intracellular HBV core protein level”. The “Capsid morphology by EM” value at HBV core protein (Cp149) [2] is listed as “showed similar results as for NVR 3-778”. This compound also showed an activity at 1 µM with HBV [5] below 45%. In addition, in series [6], the “CL (mL/min/kg) Rat” value was found to be 12.3 mL/min/kg, the “F (%) Rat” value was 66%, the Vd amounted to 1.93 L/kg and the half-life was 1.9 h.
With `Cc1cc(NC(=O)[C@H]2CCN(C(=O)c3ccc(-c4cccnc4C#N)[nH]3)C2)ccc1F` [Example 150, (S)-1-(5-(2-cyanopyridin-3-yl)-1H-pyrrole-2-carbonyl)-N-(4-fluoro-3-methylphenyl)pyrrolidine-3-carboxamide], the “Size of induced capsids based” value on HBV core protein (Cp149) [1] was “induced capsids similar in size to NVR 3-778”. Also, the CC50 at 6 days in series [3] is above 25 µM. Further, in the series on HBV [4], the EC50 was 0.05 to 0.3 µM. Also, in the series on HBV [5], the activity at 1 µM was below 45%.
